{"source": "patent US20190077874A1", "about": "“METHODS AND COMPOSITIONS FOR THE TREATMENT OF TUBEROUS SCLEROSIS” (National Tuberous Sclerosis Association, Inc., priority 2017, published 2019)", "origin": "cited, not measured here", "key": {"[1]": {"system": "TSC patients", "conditions": "previous antiepileptic drugs"}, "[2]": {"system": "IL-1β", "conditions": "TSC mouse model"}, "[3]": {"system": "CXCL10", "conditions": "TSC mouse model"}, "[4]": {"system": "TSC mouse model", "conditions": "Zhang et al."}, "[5]": {"conditions": "most commonly hypertension, immune suppression and infection, electrolyte imbalance etc."}, "[6]": {"system": "TSC patients with medically refractory epilepsy and SEGAs", "conditions": "case studies of TSC patients"}, "[7]": {"system": "refractory partial-onset seizures", "conditions": "patients with refractory partial-onset seizures"}, "[8]": {"system": "infantile spasms in the setting of TSC"}}}
{"compound": "CC1(C)O[C@@H]2[C@@H](CO[C@@]3(COS(N)(=O)=O)OC(C)(C)O[C@@H]23)O1", "note": "[topiramate]", "values": [{"measurement": "patients in whom the antiepileptic drug failed", "setting": "[1]", "result": 58, "unit": "%"}]}
{"compound": "epicatechin-3-gallate", "values": [{"measurement": "increased production of IL-1β", "setting": "[2]", "result": "reverse the increased production"}, {"measurement": "increased production of CXCL10", "setting": "[3]", "result": "reverse the increased production"}, {"measurement": "seizures", "setting": "[4]", "result": "reduced seizures"}, {"measurement": "survival", "setting": "[4]", "result": "improved survival"}]}
{"compound": "adrenocorticotropic hormone (SYSMEHFRWGKPVGKKRRPVKVYPNGAEDESAEAFPLEF; Corticotropin; UniProt P01189 138-176, looked up) [ACTH, mainstay therapy for the treatment of seizures in TSC patients]", "values": [{"measurement": "treated patients with adverse effects", "setting": "[5]", "result": "up to 85%"}]}
{"compound": "CO[C@H]1C[C@@H]2CC[C@@H](C)[C@@](O)(O2)C(=O)C(=O)N2CCCC[C@H]2C(=O)O[C@H]([C@H](C)C[C@@H]2CC[C@@H](OCCO)[C@H](OC)C2)CC(=O)[C@H](C)/C=C(\\C)[C@@H](O)[C@@H](OC)C(=O)[C@H](C)C[C@H](C)/C=C/C=C/C=C/1C", "note": "[everolimus]", "values": [{"measurement": "SEGA size", "setting": "[6]", "result": "dramatic reduction"}, {"measurement": "seizure frequency", "setting": "[6]", "result": "dramatic reduction"}]}
{"compound": "CC[C@@H](C(N)=O)N1CCCC1=O", "note": "[levetiracetam]", "values": [{"measurement": "patients in whom the antiepileptic drug failed", "setting": "[1]", "result": 67, "unit": "%"}]}
{"compound": "C=CC(N)CCC(=O)O", "note": "(stereo not drawn) [VGB, vigabatrin]", "values": [{"measurement": "patients in whom treatment is ineffectual", "setting": "[7]", "result": "more than 75%"}, {"measurement": "patients in whom the antiepileptic drug failed", "setting": "[1]", "result": 66, "unit": "%"}, {"measurement": "efficacy in treating infantile spasms", "setting": "[8]", "result": "particularly effective"}]}
